This is an account of results in patent US20250085273A1, “NOVEL RAPID DRUG DISCOVERY FOR SEPSIS AND AGENTS FOR USE AS SEPSIS THERAPY” (priority 2023, published 2025).

Holding throughout (format): in vivo, Danio rerio
Assay [1] deals with zebrafish (4 dpf pre-treated, LPS exposure at 5-dpf) challenged with P. aeruginosa LPS 60 μg/mL. The note with it: for 24 hour Tail Edema, No-Drug Pretreatment / 24 Hour Mortality and Tail Edema, Drug Pretreatment / 24 Hour Mortality, Drug Pretreatment / 24 hour Tail Edema, Drug Pretreatment / 24 Hour Mortality and Tail Edema, No-Drug Pretreatment / 24 Hour Mortality, No Drug Pretreatment: number of n = 16 fish; for 24 hour Tail Edema, No-Drug Pretreatment: 10 μM drug with LPS 60 μg/mL; for 24 hour Tail Edema, No-Drug Pretreatment / 24 Hour Mortality and Tail Edema, No-Drug Pretreatment / 24 Hour Mortality, No Drug Pretreatment: no 24-hour pre-treatment; for 24 Hour Mortality and Tail Edema, Drug Pretreatment / 24 Hour Mortality, Drug Pretreatment: 24-hour 10 μM drug pre-treatment; for 24 hour Tail Edema, Drug Pretreatment: 24-hour 10 μM drug pre-treatment before LPS 60 μg/mL. On the procedure:
Drugs identified with >80% rescue were subjected to additional testing. Drug pretreatment for 24 hours prior to LPS challenge was evaluated to determine if any prophylactic benefit could be realized with any of the top rescue drugs. The intent was to determine if drug pre-treatment might be used at the point of injury as a preventative therapeutic before the onset of infection and development of sepsis. Parallel groups of fish received a 24-hour drug pre-treatment or no drug pre-treatment prior to LPS challenge. For this test, 4 dpf PTU-treated zebrafish embryos were placed into 96 well plates containing 100 μL of EM. […] All plates were covered with parafilm and placed into an incubator at 28.5° C. for 24 hours. […] Once the plates were dosed, they were covered with parafilm and placed into an incubator at 28.5° C. The plates were removed at 6- and 24-hours post exposure and scored for tail edema and mortality. Once the 24-hour tail edema and mortality endpoints were collected, a neurobehavioral test was conducted as described in section 2.8.

Assay [2] deals with 5-dpf zebrafish larvae challenged with P. aeruginosa LPS 60 μg/mL. The note with it: compound 10 μM; for 5 dpf Embryos Percent Rescue (Mort + Tail Edema): 5-dpf larvae. The source says:
Confirmatory testing followed the same methods as the initial testing but used 5-dpf larvae instead of the 3-dpf larvae that were used for the initial screening because they were easier to handle and replicated the methods of Philip et al. (2017).
Next, follow-on 5-dpf screening was implemented to confirm initial screening with more larvae. Zebrafish swim faster at 5-dpf (requiring more time to load 96 plates), and all major organ systems are functioning at 5-dpf and thus determined as advantageous for follow-on confirmation.

The test system of assay [3] is 3-dpf Zebrafish Embryos Challenged with LPS (P. aeruginosa 60 μg/mL). The note with it: P. aeruginosa LPS 60 μg/mL, compound 10 μM; for Percent Rescue (Mort + Tail Edema): 3-dpf embryos, n=16; for Percent Rescue (Mort + Tail Edema) / rescue of tail edema and mortality (sepsis rescue rate) at 3-dpf: 24 hours; for 3 dpf Embryos Percent Rescue (Mort + Tail Edema): initial 3-dpf screen shown for reference. On the procedure: Healthy, normally developing embryos collected from the adult AB zebrafish spawning events were treated with 75 μM of 1-phenyl 2-thiourea (PTU) in EM prior to 24 hours post fertilization (hpf) to block pigmentation formation (Karlsson et al, 2001). These embryos were then placed into an incubator at 28.5° C. until they reached 3-dpf. Embryos were then removed from the incubator and plated individually into the wells of 96 well plates containing 50 μL of EM.
A super stock of 120 μg/mL of P. aeruginosa LPS was made up in EM in a glass container. This stock was then used to make sub stocks of 120 μg/mL P. aeruginosa LPS (positive control) and 120 μg/mL P. aeruginosa LPS containing 20 μM of test drug in glass scintillation vials. Immediately after the sub stocks were made, the wells were dosed with either 50 μL of 120 μg/mL of P. aeruginosa, 120 μg/mL of P. aeruginosa with 20 μM of test drug, or EM (1:1 Dilution). Each 96 well plate had one LPS positive control (n=16), 4 different test drugs with P. aeruginosa LPS (n=16 per drug), and one negative control (n=16). Once the plates were dosed, they were covered with parafilm and placed into an incubator at 28.5° C. The plates were removed at 6- and 24-hours post exposure to be scored for tail edema and mortality. All 644 drugs evaluated for rescue from mortality and tail edema induced by P. aeruginosa LPS exposure as compared to LPS-treated controls after 24 hours of exposure.
3-dpf embryos were challenged with 60 μg/mL P. aeruginosa LPS in combination with single 10 μM concentration of each compound for 24 hours (n=16 fish per compound). […] Other 29 compounds exceeded 60% rescue of tail edema and mortality at 24 hours post exposure.

Structures can show the parent of a compound that is named as a salt.

Consider `O=C(NCCN1CCOCC1)c1ccc(Cl)cc1` [Compound 5, Moclobemide], for which, in assay [1], the “24 hour Tail Edema, No-Drug Pretreatment” value is listed as 0 fish; the “24 Hour Mortality and Tail Edema, Drug Pretreatment” value is given as 16 fish; the “24 Hour Mortality, Drug Pretreatment” value came to 16 fish; the “24 hour Tail Edema, Drug Pretreatment” value worked out at 0 fish. Moreover, in assay [1], the “24 Hour Mortality and Tail Edema, No-Drug Pretreatment” value was 16 fish; the “24 Hour Mortality, No Drug Pretreatment” value came to 16 fish. Moreover, in assay [2], the “5 dpf Embryos Percent Rescue (Mort + Tail Edema)” value (“5 dpf Embryos Percent Rescue” for short) is on record as 81%; the “rescue of tail edema and mortality (sepsis rescue rate) at 5-dpf” value (“rescue … at 5-dpf” for short) worked out at 81%. Also, in assay [3], the “Percent Rescue (Mort + Tail Edema)” value is 75%; the “rescue of tail edema and mortality (sepsis rescue rate) at 3-dpf” value (“rescue … at 3-dpf” below) came to 75%; the “3 dpf Embryos Percent Rescue (Mort + Tail Edema)” value (shortened to “3 dpf Embryos Percent Rescue”) is 75%.
As for `OCCOCCN1CCN(C2=Nc3ccccc3Sc3ccccc32)CC1` [Compound 11, Quetiapine (hemifumarate)], in assay [1], the “24 hour Tail Edema, No-Drug Pretreatment” value stood at 1 fish; the “24 Hour Mortality and Tail Edema, Drug Pretreatment” value is reported as 16 fish; the “24 Hour Mortality, Drug Pretreatment” value worked out at 15 fish; the “24 hour Tail Edema, Drug Pretreatment” value turned out to be 1 fish. Moreover, in assay [1], the “24 Hour Mortality and Tail Edema, No-Drug Pretreatment” value came out at 16 fish; the “24 Hour Mortality, No Drug Pretreatment” value was 15 fish. Besides, in assay [2], the “5 dpf Embryos Percent Rescue” value amounted to 81%; the “rescue … at 5-dpf” value is listed as 81%. In assay [3], the “Percent Rescue (Mort + Tail Edema)” value was determined as 94%; the “rescue … at 3-dpf” value is 94%; the “3 dpf Embryos Percent Rescue” value came to 94%.
Take `O=C1NCC2(CCN(CCc3ccccc3)CC2)O1` [Compound 17, Fenspiride hydrochloride]: in assay [1], the “24 hour Tail Edema, No-Drug Pretreatment” value was determined as 0 fish; the “24 Hour Mortality and Tail Edema, Drug Pretreatment” value was 16 fish; the “24 Hour Mortality, Drug Pretreatment” value was 16 fish; the “24 hour Tail Edema, Drug Pretreatment” value is on record as 0 fish. In assay [1], the “24 Hour Mortality and Tail Edema, No-Drug Pretreatment” value stood at 16 fish; the “24 Hour Mortality, No Drug Pretreatment” value is reported as 16 fish. In assay [2], the “5 dpf Embryos Percent Rescue” value turned out to be 88%; the “rescue … at 5-dpf” value turned out to be 88%. Moreover, in assay [3], the “Percent Rescue (Mort + Tail Edema)” value is 63%; the “rescue … at 3-dpf” value turned out to be 63%; the “3 dpf Embryos Percent Rescue” value is 63%.
As for `O=C1Cc2cc(CCN3CCN(c4nsc5ccccc45)CC3)c(Cl)cc2N1` [Compound 63, Ziprasidone hydrochloride monohydrate], in assay [1], the “24 hour Tail Edema, No-Drug Pretreatment” value is given as 2 fish; the “24 Hour Mortality and Tail Edema, Drug Pretreatment” value amounted to 4 fish; the “24 Hour Mortality, Drug Pretreatment” value is reported as 4 fish; the “24 hour Tail Edema, Drug Pretreatment” value amounted to 0 fish. In assay [1], the “24 Hour Mortality and Tail Edema, No-Drug Pretreatment” value came to 7 fish; the “24 Hour Mortality, No Drug Pretreatment” value is reported as 5 fish. In assay [2], the “rescue … at 5-dpf” value is 100%. In assay [3], the “rescue … at 3-dpf” value was determined as 44%; the “3 dpf Embryos Percent Rescue” value came out at 44%.
Consider `CCN(CC)CCNC(=O)c1c(C)[nH]c(/C=C2\C(=O)Nc3ccc(F)cc32)c1C` [Compound 97, Sunitinib], for which the “Pre-Treatment Rescue (n = 16)” value in assay [1] (24-hour drug pre-treatment, P. aeruginosa LPS 60 μg/mL) is given as 88%. Moreover, the “No Pre-Treatment Rescue (n = 16)” value in assay [1] (no 24-hour drug pre-treatment, P. aeruginosa LPS 60 μg/mL) is given as 69%. Besides, in assay [1], the “24 hour Tail Edema, No-Drug Pretreatment” value is 4 fish; the “24 Hour Mortality and Tail Edema, Drug Pretreatment” value stood at 4 fish; the “24 Hour Mortality, Drug Pretreatment” value is recorded as 3 fish; the “24 hour Tail Edema, Drug Pretreatment” value was determined as 1 fish. Also, in assay [1], the “24 Hour Mortality and Tail Edema, No-Drug Pretreatment” value came out at 7 fish; the “24 Hour Mortality, No Drug Pretreatment” value is reported as 3 fish. In assay [2], the “5 dpf Embryos Percent Rescue” value came to 100%; the “rescue … at 5-dpf” value turned out to be 100%. Moreover, in assay [3], the “Percent Rescue (Mort + Tail Edema)” value was 81%; the “rescue … at 3-dpf” value was determined as 81%; the “3 dpf Embryos Percent Rescue” value amounted to 81%.
For the compound `COc1nc2ccc(Br)cc2cc1[C@@H](c1ccccc1)[C@@](O)(CCN(C)C)c1cccc2ccccc12` [Compound 227, Bedaquiline], in assay [1], the “24 hour Tail Edema, No-Drug Pretreatment” value came out at 0 fish; the “24 Hour Mortality and Tail Edema, Drug Pretreatment” value stood at 16 fish; the “24 Hour Mortality, Drug Pretreatment” value came to 16 fish; the “24 hour Tail Edema, Drug Pretreatment” value is on record as 0 fish. In assay [1], the “24 Hour Mortality and Tail Edema, No-Drug Pretreatment” value stood at 16 fish; the “24 Hour Mortality, No Drug Pretreatment” value came to 16 fish. The “5 dpf Embryos Percent Rescue” value in assay [2] was 75%. Moreover, in assay [3], the “Percent Rescue (Mort + Tail Edema)” value stood at 75% and the “3 dpf Embryos Percent Rescue” value was determined as 75%.
As to `C#CCN[C@H]1CCc2ccccc21.CS(=O)(=O)O` [Compound 314, Rasagiline mesylate], in assay [1], the “24 hour Tail Edema, No-Drug Pretreatment” value stood at 0 fish; the “24 Hour Mortality and Tail Edema, Drug Pretreatment” value is given as 16 fish; the “24 Hour Mortality, Drug Pretreatment” value came to 16 fish; the “24 hour Tail Edema, Drug Pretreatment” value amounted to 0 fish. For the same compound, in assay [1], the “24 Hour Mortality and Tail Edema, No-Drug Pretreatment” value was found to be 16 fish; the “24 Hour Mortality, No Drug Pretreatment” value is on record as 16 fish. Besides, in assay [2], the “5 dpf Embryos Percent Rescue” value is given as 88%; the “rescue … at 5-dpf” value was determined as 88%. Further, in assay [3], the “Percent Rescue (Mort + Tail Edema)” value is reported as 63%; the “rescue … at 3-dpf” value is on record as 63%; the “3 dpf Embryos Percent Rescue” value was 63%.
On to `COc1ccc2c(c1)N(C[C@H](C)CN(C)C)c1ccccc1S2` [Compound 316, Levomepromazine], for which, in assay [1], the “24 hour Tail Edema, No-Drug Pretreatment” value is 1 fish; the “24 Hour Mortality and Tail Edema, Drug Pretreatment” value worked out at 16 fish; the “24 Hour Mortality, Drug Pretreatment” value amounted to 16 fish; the “24 hour Tail Edema, Drug Pretreatment” value came to 0 fish. In assay [1], the “24 Hour Mortality and Tail Edema, No-Drug Pretreatment” value amounted to 16 fish; the “24 Hour Mortality, No Drug Pretreatment” value was 15 fish. In assay [2], the “5 dpf Embryos Percent Rescue” value is 88%; the “rescue … at 5-dpf” value is listed as 88%. In assay [3], the “Percent Rescue (Mort + Tail Edema)” value worked out at 63%; the “rescue … at 3-dpf” value is 63%; the “3 dpf Embryos Percent Rescue” value came to 63%.
Alverine (citrate) [Compound 138]: in assay [2], the “5 dpf Embryos Percent Rescue” value was determined as 38%. In assay [3], the “Percent Rescue (Mort + Tail Edema)” value is on record as 69% and the “3 dpf Embryos Percent Rescue” value was determined as 69%.
For Bedaquiline fumarate [Compound 474], the “5 dpf Embryos Percent Rescue” value in assay [2] worked out at 0%. For the same compound, in assay [3], the “Percent Rescue (Mort + Tail Edema)” value was determined as 94% and the “3 dpf Embryos Percent Rescue” value was found to be 94%.
As for Gabexate (mesylate) [Compound 8], the “5 dpf Embryos Percent Rescue” value in assay [2] is 31%. Also, in assay [3], the “Percent Rescue (Mort + Tail Edema)” value worked out at 88% and the “3 dpf Embryos Percent Rescue” value was 88%.
As to Lumateperone (tosylate) [Compound 30], in assay [2], the “5 dpf Embryos Percent Rescue” value is recorded as 19%. In addition, in assay [3], the “Percent Rescue (Mort + Tail Edema)” value was 75% and the “3 dpf Embryos Percent Rescue” value worked out at 75%.
